Test results published in patent US11746343B2, “Wheat plants having increased resistance to imidazolinone herbicides” (Northwest Plant Breeding Company, priority 2001, dated 2023).

Assays:
[1] = tested on: AHAS extracted from Madsen1; assay: in vitro AHAS activity, Madsen1 compared to wild type Madsen; format: biochemical, Triticum aestivum
Source text: Because the tolerance in Madsen1 is due to a mutation in the AHAS enzyme rendering it resistant to inhibition by imidazolinone herbicides, the in vitro activity of AHAS extracted from wild type plants (not having the mutation for tolerance) can be compared to the in vitro activity of AHAS extracted from tolerant plants in the presence of varying concentrations of an imidazolinone (IMI) herbicide. Madsen1 was compared to the wild type variety Madsen.

[2] = tested on: HRS 198205 (AP205CL) wheat plants; assay: field plots and seed increases sprayed with imazamox, HRS 198205 / AP205CL; format: in vivo, Triticum aestivum
Protocol: (§1) Progeny seed of HRS 198205 and HRS198208 were collected and planted in the field. Field plots were sprayed with imazamox herbicide at 80 g. a.i./ha.+1.0% Sun-It adjuvant (v/v). […] Additionally, seed harvested from plots of five of the HRS198208 sub-lines were combined into a single lot that was designated AP602CL (referred to above as Gunner IMI 208). Seed increases were conducted at several locations. All seed increases were sprayed with imazamox herbicide at 40 g. a.i./ha+0.25% (v/v) non-ionic surfactant.

[3] = tested on: AHAS enzyme extracted from herbicide tolerant AP205CL plants; assay: in vitro AHAS enzyme activity, enzyme extracted from AP205CL plants; format: biochemical, Triticum aestivum
Source text: (§2) Both the AP205CL and AP602CL wheat plants are tolerant to imidazolinone herbicides due to a mutation of the AHAS enzyme that is resistant to inhibition by these herbicides in vitro. […] The values in FIG. 1 are expressed as a percent of uninhibited activity. […] This activity continues to decline to nearly 100 percent inhibition of the enzyme at higher herbicide concentrations ([…]). In contrast, the AHAS enzyme extracted from herbicide tolerant AP205CL plants retains nearly 90 percent of its activity at the […] imazamox concentration, and approximately one third of its activity at the higher (50 µM to 100 µM) concentrations. The AHAS enzyme extracted from herbicide tolerant AP602CL plants retains nearly 80-100 percent of its activity at the […] imazamox concentration, and nearly half of its activity at the higher ([…]) concentrations. These levels of activity are sufficient to allow the tolerant wheat plants to survive the application of imazamox, as was observed during the selection process (Example 1).
(§3) AHAS is known to be feedback inhibited by the branched chain amino acids. Valine and leucine in combination are especially effective inhibitors.

[4] = tested on: AHAS enzyme from wild type Gunner wheat; assay: in vitro AHAS enzyme activity, enzyme extracted from wild type wheat; format: biochemical, Triticum aestivum; design: unit of the concentration uncertain
Source text: as §2, §3

Madsen1 wheat line = assay: selection of tolerant Madsen line (M2 field, M3 greenhouse); format: in vivo, Triticum aestivum
Protocol: Seeds of the soft white winter wheat variety Madsen, were pre-soaked in tap water. After decanting the tap water, a solution of 0.03% EMS and 0.02% DES was poured into the seed container. The container was shaken every 10-15 minutes during the course of a two-hour treatment. The EMS and DES solution was decanted and a solution of 0.02% sodium azide in 0.001 M phosphate buffer was added. The container again was shaken every 10-15 minutes during the course of a two-hour treatment. Seeds were then rinsed in tap water and dried. After drying, seeds were planted. Planted seeds represented the M1 generation. M1 plants were allowed to self-pollinate and the M2 seed harvested as a bulk. Approximately 0.2 hectares of M2 seed were planted in the field and resultant plants treated with an imazamox rate of 40 g. ai/ha. Twelve M2 plants were identified as tolerant. These plants were dug, and sent to Pullman, Wash. for vernalization and M3 seed production. M3 seed from each of the M2 plants were planted in the greenhouse and resultant plants were vernalized for 8 weeks, then treated with 80 g. ai/ha of Imazamox. Plants were selected based upon observed levels of tolerance and repotted for seed production. The M2:3 line designated Madsen1 selected as tolerant to 40 g/ha imazamox as an M2 was confirmed as tolerant to imazamox at the 80 g/ha rate applied to M3 progeny.

[5] = tested on: HRS198208 (AP602CL) wheat plants; assay: field plots and seed increases sprayed with imazamox, HRS198208 / AP602CL; format: in vivo, Triticum aestivum
Protocol: as §1

Madsen1 wheat plants = assay: greenhouse trial of tolerance of Madsen1 to imazamox; format: in vivo, Triticum aestivum; conditions: 40 and 80 g/ha, 14 days after treatment, control Teal
Protocol: Madsen1 was evaluated for tolerance to the imidazolinone herbicide imazamox at 40 and 80 g/ha in a greenhouse trial. The susceptible wheat cultivar Teal was used as a control. Evaluation was made 14 days after treatment. Injury was scored on a 0-9 scale, 0 representing no injury and 9 representing plant death.

[6] = tested on: AHAS enzyme extracted from herbicide tolerant AP602CL plants; assay: in vitro AHAS enzyme activity, enzyme extracted from AP602CL plants; format: biochemical, Triticum aestivum
Source text: as §2, §3

COCc1cnc(C2=NC(C)(C(C)C)C(=O)N2)c(C(=O)O)c1 (stereo not drawn) [imazamox]
residual uninhibited AHAS ([1]; 100 μM imazamox, Madsen1): sufficient to provide a herbicide tolerant response | uninhibited AHAS enzyme activity as imazamox concentration increased ([1]; Madsen1 compared to wild type Madsen): decreased faster in wild type lines than in Madsen) | herbicide susceptible plants in seed increases ([2]; 40 g. a.i./ha + 0.25% (v/v) non-ionic surfactant, AP205CL): No herbicide susceptible plants were observed | tolerance in field plots ([2]; 80 g. a.i./ha + 1.0% Sun-It adjuvant (v/v), HRS 198205): same level of acceptable tolerance | AHAS activity retained ([3]; 1 M imazamox): ~90% | AHAS activity retained (fraction of its activity) ([3]; higher (50 M to 100 µM) imazamox concentrations): approximately one third | inhibition of the AHAS enzyme ([4]; higher herbicide concentrations (100 (unit uncertain))): ~100% | reduction of AHAS activity ([4]; low concentration (1 (unit uncertain)) of imazamox): 1 to 35% | tolerance of M2 plants (Madsen1 wheat line; 40 g/ha imazamox, field, M2): tolerant | tolerance of M3 progeny (Madsen1 wheat line; 80 g/ha imazamox, greenhouse, M3 progeny): tolerant | herbicide susceptible plants in seed increases ([5]; 40 g. a.i./ha + 0.25% (v/v) non-ionic surfactant, AP602CL): No herbicide susceptible plants were observed | tolerance in field plots ([5]; 80 g. a.i./ha + 1.0% Sun-It adjuvant (v/v), HRS198208): same level of acceptable tolerance | tolerance (injury scored on a 0-9 scale) (Madsen1 wheat plants): has tolerance | AHAS activity retained ([6]; 1 M imazamox): 80-100% | AHAS activity retained (fraction of its activity) ([6]; higher (50 µM to 100 µM) imazamox concentrations): half
